Structures can show the parent of a compound that is named as a salt.
Target: T1, human 5-HT4(a) (Homo sapiens, UniProt Q13639)
T1 construct: host or cells: GeneBlAzer HTR4-CRE-bla CHO-K1 cells
Assay: Evaluation of agonistic activity in CHO-K1 cells expressing human 5-HT4(a) (GeneBlAzer HTR4-CRE-bla CHO-K1, beta-lactamase reporter)
Format: cell-based
Settings: CHO-K1 cells stably expressing human 5-HT4(a)
Method in brief: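 GeneBlAzer HTR4-CRE-bla CHO-K1 cells, 10^4/well overnight, exposed 5 h to compounds at 8 concentrations in medium with 1% DMSO in the added solution. β-lactamase substrate 2 h in dark; 410 nm excitation, 465/535 nm emission ratio; EC50 by non-linear regression.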

T1 sequence (Q13639 1-387 isoform Q13639-2): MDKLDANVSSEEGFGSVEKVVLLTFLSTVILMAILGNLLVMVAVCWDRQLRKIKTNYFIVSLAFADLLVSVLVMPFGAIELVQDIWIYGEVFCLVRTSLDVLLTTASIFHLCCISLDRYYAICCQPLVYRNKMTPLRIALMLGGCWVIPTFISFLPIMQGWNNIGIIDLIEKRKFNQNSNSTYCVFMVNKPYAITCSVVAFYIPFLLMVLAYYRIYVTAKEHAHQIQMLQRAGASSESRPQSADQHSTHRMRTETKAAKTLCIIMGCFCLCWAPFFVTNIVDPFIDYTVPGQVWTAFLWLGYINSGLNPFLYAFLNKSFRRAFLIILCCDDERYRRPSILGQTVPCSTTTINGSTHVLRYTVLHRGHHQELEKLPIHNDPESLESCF

EC50 [nM] | Compound
0.236 | CCCc1cc(N2CCC[C@H]2C=O)nc(Nc2cccc(C#N)c2)n1 [Example 402, (S)-3-[4-(2-formylpyrrolidin-1-yl)-6-propylpyrimidin-2-ylamino]benzonitrile]
0.062 | CCCc1cc(N2CC[C@H](N)C2)nc(Nc2cccc(SC)c2)n1 [Example 345, (S)-4-(3-aminopyrrolidin-1-yl)-N-[3-(methylthio)phenyl]-6-propylpyrimidin-2-amine dihydrochloride]
0.056 | CCCc1cc(N2CC[C@H](NC(=O)CC)C2)nc(Nc2ccc(C)c(C#N)c2)n1 [Example 425]
0.159 | CCCc1cc(N2CC[C@H](NS(C)(=O)=O)C2)nc(Nc2cccc(C#N)c2)n1 [Example 125, (S)-N-{1-[2-(3-cyanophenylamino)-6-propylpyrimidin-4-yl]pyrrolidin-3-yl}methanesulfonamide]
0.36 | CCCc1cc(N2CC[C@H](NC(=O)C3CCCC3)C2)nc(Nc2cccc(C#N)c2)n1 [Example 62, (S)-N-{1-[2-(3-cyanophenylamino)-6-propylpyrimidin-4-yl]pyrrolidin-3-yl}cyclopentanecarboxamide]
0.058 | CCCc1cc(N2CC[C@H](NC(C)=O)C2)nc(Nc2cccc(SC)c2)n1 [Example 242]
0.016 | CCCc1cc(N2CC[C@H](NCc3ccsc3)C2)nc(Nc2cccc(C#N)c2)n1 [Example 113, (S)-3-{4-propyl-6-[3-(thiophen-3-ylmethylamino)pyrrolidin-1-yl]pyrimidin-2-ylamino}benzonitrile]
0.0058 | CCCCc1cc(N2CC[C@H](NCC)C2)nc(Nc2cc(N)cc(C(F)(F)F)c2)n1 [Example 466]
0.38 | CCCc1cc(N2CC[C@H](N)C2)nc(Nc2ccc(F)cc2)n1 [Example 47, (S)-4-(3-aminopyrrolidin-1-yl)-N-(4-fluorophenyl)-6-propylpyrimidin-2-amine dihydrochloride]
0.42 | CCCc1cc(N2CCC(NC(C)=O)C2)nc(Nc2cccc(Cl)c2)n1 (stereo not shown) [Example 302]
0.0039 | CCCc1cc(N2CC[C@H](NC(C)=O)C2)nc(Nc2cc(N)cc(C#N)c2)n1 [Example 262]
0.44 | CCCc1cc(N2CC[C@H](NC(=O)C/C=C/c3ccccc3)C2)nc(Nc2cccc(C#N)c2)n1 [Example 79, (S,E)-N-{1-[2-(3-cyanophenylamino)-6-propylpyrimidin-4-yl]pyrrolidin-3-yl}-4-phenylbut-3-enamide]
0.014 | CCCc1cc(N2CC[C@H](NCc3ccc(O)cc3)C2)nc(Nc2cccc(C#N)c2)n1 [Example 91, (S)-3-{4-[3-(4-hydroxybenzylamino)pyrrolidin-1-yl]-6-propylpyrimidin-2-ylamino}benzonitrile]
0.003 | CCCc1cc(N2CC[C@H](N)C2)nc(Nc2ccc(C)c(C#N)c2)n1 [Example 354, (S)-5-[4-(3-aminopyrrolidin-1-yl)-6-propylpyrimidin-2-ylamino]-2-methylbenzonitrile dihydrochloride]
0.012 | CCCc1cc(N2CC[C@H](NC(C)C)C2)nc(Nc2cccc(C#N)c2)n1 [Example 138, (S)-3-{4-[3-(isopropylamino)pyrrolidin-1-yl]-6-propylpyrimidin-2-ylamino}benzonitrile]
0.0012 | CCCCc1cc(N2CC[C@H](N)C2)nc(Nc2ccc(C)c(C#N)c2)n1 [Example 234, (S)-5-[4-(3-aminopyrrolidin-1-yl)-6-butylpyrimidin-2-ylamino]-2-methylbenzonitrile dihydrochloride]
0.029 | CCCc1cc(N2CCC[C@H]2CO)nc(Nc2ccc(F)c(C#N)c2)n1 [Example 214, (S)-2-fluoro-5-{4-[2-(hydroxymethyl)pyrrolidin-1-yl]-6-propylpyrimidin-2-ylamino}benzonitrile]

EC50 [nM] | Compound
0.044 | CCCc1cc(N2CCC[C@H]2C)nc(Nc2ccc(C)c([N+](=O)[O-])c2)n1 [Example 321, (R)—N-(4-methyl-3-nitrophenyl)-4-(2-methylpyrrolidin-1-yl)-6-propylpyrimidin-2-amine]
0.005 | CCCc1cc(N2CC[C@H](NCC(C)(C)C)C2)nc(Nc2cccc(C#N)c2)n1 [Example 105, (S)-3-{4-[3-(neopentylamino)pyrrolidin-1-yl]-6-propylpyrimidin-2-ylamino}benzonitrile]
0.028 | CCCc1cc(N2CCC(NC)C2)nc(Nc2cccc(C#N)c2)n1 (stereo not shown) [Example 59, 3-{4-[3-(methylamino)pyrrolidin-1-yl]-6-propylpyrimidin-2-ylamino}benzonitrile dihydrochloride]
0.039 | CCCc1cc(N2CC[C@H](NCC3CCCCC3)C2)nc(Nc2cccc(C#N)c2)n1 [Example 86, (S)-3-{4-[3-(cyclohexylmethylamino)pyrrolidin-1-yl]-6-propylpyrimidin-2-ylamino}benzonitrile]
0.046 | CCCc1cc(N2CC[C@H](NCCOCc3ccccc3)C2)nc(Nc2cccc(C#N)c2)n1 [Example 145, (S)-3-(4-{3-[2-(benzyloxy)ethylamino]pyrrolidin-1-yl}-6-propylpyrimidin-2-ylamino)benzonitrile]
0.2 | CCCc1cc(N2CC[C@H](NC(=O)CNC(=O)OCc3ccccc3)C2)nc(Nc2cccc(C#N)c2)n1 [Example 165, (S)-benzyl 2-{1-[2-(3-cyanophenylamino)-6-propylpyrimidin-4-yl]pyrrolidin-3-ylamino}-2-oxoethylcarbamate]
0.017 | CCCCc1cc(N2CC[C@H](NC(C)=O)C2)nc(Nc2cc(N)cc(C(F)(F)F)c2)n1 [Example 440]
0.019 | CCCc1cc(N2CCC(NC(C)=O)C2)nc(Nc2ccc(N)c(C#N)c2)n1 (stereo not shown) [Example 311]
0.026 | CCCc1cc(N2CC[C@H](NC(C)=O)C2)nc(Nc2ccc(C)c(C(F)(F)F)c2)n1 [Example 280]
0.019 | CCCCc1cc(N2CC[C@H](N)C2)nc(Nc2cccc(C#N)c2)n1 [Example 233, (S)-3-[4-(3-aminopyrrolidin-1-yl)-6-butylpyrimidin-2-ylamino]benzonitrile dihydrochloride]
0.036 | CCCc1cc(N2CCC(N)C2)nc(Nc2ccc(F)c(C#N)c2)n1 (stereo not shown) [Example 182]
0.041 | CCCCCN[C@H]1CCN(c2cc(CCC)nc(Nc3cccc(C#N)c3)n2)C1 [Example 94, (S)-3-{4-[3-(pentylamino)pyrrolidin-1-yl]-6-propylpyrimidin-2-ylamino}benzonitrile]
0.038 | CCCc1cc(N2CC[C@H](NC(C)=O)C2)nc(Nc2ccc(C)c(N)c2)n1 [Example 292, (S)—N-{1-[2-(3-amino-4-methylphenylamino)-6-propylpyrimidin-4-yl]pyrrolidin-3-yl}acetamide]
0.0052 | CCCc1cc(N2CC[C@H](NC(C)=O)C2)nc(Nc2ccc(C)c(C#N)c2)n1 [Example 252, (S)—N-{1-[2-(3-cyano-4-methylphenylamino)-6-propylpyrimidin-4-yl]pyrrolidin-3-yl}acetamide]
0.254 | CCCc1cc(N2CCC[C@H]2CNCCO)nc(Nc2cccc(C#N)c2)n1 [Example 407]
0.045 | CCCc1cc(N2CC[C@H](NCc3cccs3)C2)nc(Nc2cccc(C#N)c2)n1 [Example 112, (S)-3-{4-propyl-6-[3-(thiophen-2-ylmethylamino)pyrrolidin-1-yl]pyrimidin-2-ylamino}benzonitrile]
0.37 | CCCc1cc(N2CCC(NC(C)=O)C2)nc(Nc2cnc3ccccc3c2)n1 (stereo not shown) [Example 310]

— US9890138B2, “Diaminopyrimidine derivatives and processes for the preparation thereof” (YUHAN CORPORATION, priority 2011, dated 2018)
